Experiment [1] deals with T1, AF4-AF9 interaction (Homo sapiens, UniProt P42568).
T1 construct: made in house; host or cells: GST-AF4 from E. coli; AF9 by coupled in vitro transcription/translation (Promega)
T1 sequence (P42568 211-568): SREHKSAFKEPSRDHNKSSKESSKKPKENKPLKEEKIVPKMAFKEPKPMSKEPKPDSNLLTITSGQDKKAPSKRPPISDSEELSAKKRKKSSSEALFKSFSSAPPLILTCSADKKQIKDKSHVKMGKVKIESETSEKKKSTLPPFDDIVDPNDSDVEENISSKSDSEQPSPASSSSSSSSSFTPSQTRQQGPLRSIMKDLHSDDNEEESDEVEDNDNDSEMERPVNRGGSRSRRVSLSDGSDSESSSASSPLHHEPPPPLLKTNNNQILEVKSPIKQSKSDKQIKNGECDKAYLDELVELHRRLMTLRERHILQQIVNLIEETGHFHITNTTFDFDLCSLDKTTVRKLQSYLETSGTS
The experiment in a line: GST pull-down assay, GST-AF4(749-775) and biotinylated AF9. Type of experiment: binding. As to the method:
To determine if the synthetic peptide could disrupt the AF4-AF9 interaction in vitro, and to determine if the peptide disrupted other binding events with AF9, the following assay was performed. In additional to AF4, the carboxy-terminus of AF9 binds at least two other proteins, the Polycomb protein MPc3 and mBCoR, the mouse homolog of the human BCL-6 corepressor protein (Srinivasan 2003 and Hemenway 2001, both cited above). Using a yeast three hybrid assay similar to that described in Example 1, it was previously shown that mBCoR and FMR2 (an AF4 homolog) can simultaneously bind AF9. […] The sequences of human AF4 and AF9 and murine MPc3 and BCoR can be found in the NCBI database under Accession Nos. P51825, P42568, Q9QXV1, and AAN85318, respectively, incorporated by reference herein.
Recombinant proteins consisting of glutathione-S-transferase (GST) fused to either (a) amino acids 749–775 of human AF4 SEQ ID NO: 107, (b) amino acids 202–362 of MPc3 SEQ ID NO: 108 or (c) amino acids 925–1759 of mBCoR SEQ ID NO: 109 were isolated from E. coli. These fusion proteins were immobilized on 50 μl glutathione agarose matrix. (i.e., glutathione Sepharose™ beads). Biotinylated AF9 was synthesized by coupled in vitro transcription and translation (Promega) of a Hind III restriction fragment of human AF9 cDNA. This fragment encodes the C-terminal 368 aa of AF9 SEQ ID NO: 114.
Binding of biotinylated AF9 was performed as previously described (Srinivasan, R. S., et al., 2003, cited above; Hemenway, C. S., et al., Oncogene 2001 20: 3798–3805). Briefly, 25 μl of crude AF4 protein extract was immobilized on glutathione coated 96 well plates (Sigma) followed by extensive washing with TBS containing 0.05% Tween (TBST). […]
After extensive washing with TBST, proteins were resolved by SDS-PAGE and transferred to nitrocellulose. […] Alkaline phosphatase activity was measured by determining the optical density of the samples at 405 nm with a plate spectrophotometer. […]

The test system of experiment [2] is B1 leukemia cells. The experiment in a line: CaspACE FITC-VAD-FMK caspase assay. Type of experiment: cell-based. The conditions noted are these: 50 μg peptide, 24 h / overnight. As for the experimental part: To examine an additional marker of apoptosis, apoptosis assays utilizing the FITC-labeled VAD-FMK caspase substrate, CaspACE FITC-VAD-FMK (Promega) were performed according to the manufacturer's instructions. Caspase activation in individual cells was monitored by binding of the caspase substrate, followed by flow cytometry analysis. Briefly, B1 leukemia cells were suspended in RPMI 1640+10% FCS at a concentration of 5×10^5 cells/ml and treated with 50 μg PFWT, PFmut or an equal volume of DMSO. Following an overnight incubation at 37° C., the fluorescent caspase substrate CaspACE FITC-VAD-FMK marker was added to a final concentration of 10 μM and incubated for 20 minutes at 37° C. under light protective conditions. The cells were pelletted, washed, and resuspended in PBS. Cells were then analyzed by flow cytometry using a Becton Dickinson FACS Vantage flow cytometer. A 488 nm wavelength argon-ion laser beam was used for excitation, and the emission was measured using a 530 nm filter.

Turning to `CC[C@H](C)[C@H](NC(=O)[C@H](CCC(N)=O)NC(=O)[C@@H](N)CCCNC(=N)N)C(=O)N[C@@H](CCCCN)C(=O)N[C@@H](Cc1c[nH]c2ccccc12)C(=O)N[C@@H](Cc1ccccc1)C(=O)N[C@@H](CCC(N)=O)C(=O)N[C@@H](CC(N)=O)C(=O)N[C@@H](CCCNC(=N)N)C(=O)N[C@@H](CCCNC(=N)N)C(=O)N[C@@H](CCSC)C(=O)N[C@@H](CCCCN)C(=O)N[C@@H](Cc1c[nH]c2ccccc12)C(=O)N[C@@H](CCCCN)C(=O)N[C@@H](CCCCN)C(=O)N[C@@H](CC(C)C)C(=O)N[C@@H](Cc1c[nH]c2ccccc12)C(=O)N[C@@H](CCC(=O)O)C(=O)N[C@@H](CCCCN)C(=O)N[C@@H](CO)C(=O)N[C@@H](CC(=O)O)C(=O)N[C@@H](CC(C)C)C(=O)N[C@@H](CC(=O)O)C(=O)N[C@@H](CC(C)C)C(=O)N[C@@H](CC(C)C)C(=O)N[C@@H](CO)C(=O)N[C@@H](CCCNC(=N)N)C(=O)N[C@H](C(=O)N1CCC[C@H]1C(=O)O)C(C)C` [PFmut], the AF4-AF9 binding result is “does not interfere with AF4-AF9 binding” in experiment [1] (peptide 10 μg/ml, western blot) and “binding was still apparent” in experiment [1] (peptide 100 μg/ml). For the same compound, the “caspase activation (fluorescence intensity)” value in experiment [2] is recorded as “little caspase activation can be detected”.

With `CC[C@H](C)[C@H](NC(=O)[C@H](CCCCN)NC(=O)[C@@H](NC(=O)[C@H](Cc1c[nH]c2ccccc12)NC(=O)[C@H](CC(C)C)NC(=O)[C@H](CCCCN)NC(=O)[C@H](CCCCN)NC(=O)[C@H](Cc1c[nH]c2ccccc12)NC(=O)[C@H](CCCCN)NC(=O)[C@H](CCSC)NC(=O)[C@H](CCCNC(=N)N)NC(=O)[C@H](CCCNC(=N)N)NC(=O)[C@H](CC(N)=O)NC(=O)[C@H](CCC(N)=O)NC(=O)[C@H](Cc1ccccc1)NC(=O)[C@H](Cc1c[nH]c2ccccc12)NC(=O)[C@H](CCCCN)NC(=O)[C@@H](NC(=O)[C@H](CCC(N)=O)NC(=O)[C@@H](N)CCCNC(=N)N)[C@@H](C)CC)C(C)C)C(=O)N[C@@H](CC(=O)O)C(=O)N[C@@H](CC(C)C)C(=O)N[C@@H](CC(=O)O)C(=O)N[C@@H](CC(C)C)C(=O)N[C@@H](CC(C)C)C(=O)N[C@@H](CO)C(=O)N[C@@H](CCCNC(=N)N)C(=O)N[C@H](C(=O)N1CCC[C@H]1C(=O)O)C(C)C` [PFWT], in experiment [1] (peptide 10 μg/ml, western blot), the AF4-AF9 binding result is listed as “completely blocks AF4-AF9 binding”. Moreover, the “caspase activation (fluorescence intensity)” value in experiment [2] was “caspases are activated”.

These data come from US7189691B2, “Methods and compositions for treating leukemia” (The Administrators of the Tulane Educational Fund, priority 2004, dated 2007).
